Assay results taken from US20040072851A1, “Medicinal compositions for treating lower uropathy” (priority 2001, published 2004).
Structures can show the parent of a compound that is named as a salt.

Experiments:
neurogenic bladder = conditions: applicant's earlier filing PCT/JP99/03343; cited from earlier work
[1] = tested on: patients suffering from lower urinary tract symptoms; assay: Clinical test to patients suffering from lower urinary tract symptoms (four-week test); assay type: in vivo, human; conditions: for Total score for subjective symptoms after the test: 0.2 mg capsule orally once daily after breakfast; for Changing Rate (%) of total score for subjective symptoms: 0.2 mg capsule orally once daily, after vs before the test
Description: A clinical test was carried out under the following conditions using the patients suffering from lower urinary tract symptoms. (cf. Chapter 1: Indexes for Evaluation of Prostatic Hypertrophy in “Guideline for Clinical Test for Urinary Disturbance” published by Iyaku Tosho Shuppan) Subjects: four patients diagnosed as lower urinary tract symptoms, i.e. urinary disturbance without clear organic or neurological abnormality in lower urinary tract (3 males and 1 female). Test drug and administering method: One capsule containing 0.2 mg of tamsulosin hydrochloride was orally administered once daily after breakfast. Test period: four weeks (28 days) Observed items: Evaluations and measurements were made for the following items before and after the administration. (1) Total Score for Subjective Symptoms Questioning was done to the patients for the following items and the total score was obtained. (2) QOL Index With regard to an index for quality of life (QOL), a questioning that “How do you think if the present urinary condition continues in future as well?” was done as a total diagnosis concerning the urinary disturbance and any of the following evaluations was collected.

[2] = tested on: patients suffering from lower urinary tract symptoms; assay: Clinical test to patients suffering from lower urinary tract symptoms (twelve-week test); assay type: in vivo, human
Description: A clinical test was carried out under the following conditions using the patients suffering from lower urinary tract symptoms. Subjects: eighteen patients diagnosed as lower urinary tract symptoms, i.e. urinary disturbance without clear organic or neurological abnormality in lower urinary tract (15 males and 3 female, age: 57.2±14.2). Test drug and administering method: One capsule containing 0.2 mg of tamsulosin hydrochloride was orally administered once daily after breakfast for four weeks and, after that, the dose after 4 weeks was controlled in consideration of the following criterion, and the dose was orally administered once daily after breakfast. [table] Test period: twelve weeks (84 days)(4 weeks (28 days) for 8 males) Observed items: Evaluations and measurements were made for the following items before and after the administration. (1) Total Score for Subjective Symptoms Total scores for the following <1>˜<7>before and after the administration were obtained in the same way as in Test Example 1. <1>Feel of residual urine, <2>Urination within two hours, <3>Break of urinary stream, <4>Urgency, <5>Force of urinary stream, <6>Straining upon urination and <7>Frequency of urination at night. (2) QOL Index “How do you think if the present urinating state continues in future as well?” (3) Test on Functions <1>maximum urinary stream rate <2>average urinary stream rate

[3] = avg. of four patients, four weeks
[4] = Female (n = 3), after 4 week, 0.2 mg/day orally
[5] = Female (n = 3), after 12 week, 0.2 mg/day for 4 weeks, then 0.2 or 0.4 mg/day orally
[6] = Total (n = 10), after 12 week, 0.2 mg/day for 4 weeks, then 0.2 or 0.4 mg/day orally
[7] = Total (n = 18), after 4 week, 0.2 mg/day orally
[8] = male (n = 7), after 12 week, 0.2 mg/day for 4 weeks, then 0.2 or 0.4 mg/day orally
[9] = male (n = 15), after 4 week, 0.2 mg/day orally

In the case of CCOc1ccccc1OCCN[C@H](C)Cc1ccc(OC)c(S(N)(=O)=O)c1 [tamsulosin], the “Clinical efficacy for the therapy of neurogenic bladder” value (neurogenic bladder) is given as “clinically effectively for the therapy of neurogenic bladder”.
In the case of CCOc1ccccc1OCCN[C@H](C)Cc1ccc(OC)c(S(N)(=O)=O)c1 [tamsulosin hydrochloride], the “Total score for subjective symptoms after the test” value (from here on “Total score … after the test”) [1, 3] is reported as 13.3, the “Changing Rate (%) of total score for subjective symptoms” value (shortened to “Changing Rate (%) of total score”) [1, 3] is reported as −40.8% and the “Improvement in QOL index” value ([1]; four patients, average, after vs before administration, four weeks) is reported as “improvement of one point in average”. The “QOL index, mean value after the administration” value ([1]; four patients, 0.2 mg orally once daily, four weeks, scale 0 (quite satisfactory) to 6 (quite unsatisfactory), before administration 4.8) was 3.8, the “Overall conclusion on efficacy (total score for subjective symptom, QOL index)” value ([1]; four-week test, 0.2 mg orally once daily) was “confirmed to be effective as a therapeutic agent for lower urinary tract symptoms” and the “Total score … after the test” value ([1]; patient four, four weeks) was 13. The “Changing Rate (%) of total score” value ([1]; patient four, four weeks) was −48.0%, the “Total score … after the test” value ([1]; patient one, four weeks) was 11 and the “Changing Rate (%) of total score” value ([1]; patient one, four weeks) was −26.7%. The “Total score … after the test” value ([1]; patient three, four weeks) was 20, the “Changing Rate (%) of total score” value ([1]; patient three, four weeks) was −23.1% and the “Total score … after the test” value ([1]; patient two, four weeks) was 9. For the same molecule, the “Changing Rate (%) of total score” value ([1]; patient two, four weeks) was −65.4%, the “Changing Amt of Average urinary stream rate” value [2, 4] was “+2.2 ± 1.8 ml/s” and the “Changing Amt of Maximum urinary stream rate” value [2, 4] was “+3.8 ± 1.9 ml/s”. For the same molecule, the “Changing Amt of QOL Index” value [2, 4] was −1.3 ± 1.2, the “Changing Rate of Total score for subjective symptoms” value (“Changing Rate of Total score” below) [2, 4] was −30.5 ± 16.9% and the “Changing Amt of Average urinary stream rate” value [2, 5] was “+2.1 ± 2.8 ml/s”. For the same molecule, the “Changing Amt of Maximum urinary stream rate” value [2, 5] was “+6.2 ± 6.0 ml/s”, the “Changing Amt of QOL Index” value [2, 5] was −3.0 ± 1.7 and the “Changing Rate of Total score” value [2, 5] was −37.4 ± 26.8%. The “Changing Amt of Average urinary stream rate” value [2, 6] was “+3.8 ± 2.5 ml/s”, the “Changing Amt of Maximum urinary stream rate” value [2, 6] was “+7.3 ± 4.6 ml/s” and the “Changing Amt of QOL Index” value [2, 6] was −2.9 ± 1.7. The “Changing Rate of Total score” value [2, 6] was −44.6 ± 32.1%, the “Changing Amt of Average urinary stream rate” value [2, 7] was “+2.0 ± 3.3 ml/s” and the “Changing Amt of Maximum urinary stream rate” value [2, 7] was “+3.1 ± 6.7 ml/s”. For the same molecule, the “Changing Amt of QOL Index” value [2, 7] was −1.6 ± 1.7, the “Changing Rate of Total score” value [2, 7] was −40.9 ± 25.2% and the “effective rate (Degree of Improvement as a whole is more than "Useful")” value ([2]; after 12 weeks, decided by Guideline for Clinical Test for Urinary Disturbance) was 70.0%. For the same molecule, the “Changing Amt of Average urinary stream rate” value [2, 8] was “+4.6 ± 2.2 ml/s”, the “Changing Amt of Maximum urinary stream rate” value [2, 8] was “+7.8 ± 4.3 ml/s” and the “Changing Amt of QOL Index” value [2, 8] was −2.9 ± 1.9. For the same molecule, the “Changing Rate of Total score” value [2, 8] was −47.0 ± 35.6%, the “Changing Amt of Average urinary stream rate” value [2, 9] was “+1.9 ± 3.6 ml/s” and the “Changing Amt of Maximum urinary stream rate” value [2, 9] was “+2.9 ± 7.4 ml/s”. The “Changing Amt of QOL Index” value [2, 9] was −1.6 ± 1.8, the “Changing Rate of Total score” value [2, 9] was −43.0 ± 26.5% and the “Overall conclusion on efficacy (total score for subjective symptom, QOL index, test on functions)” value ([2]; twelve-week test) was “confirmed to be effective as a therapeutic agent for lower urinary tract symptoms”.
